From patent US4889634A, “Dialysate solution containing hydroxypropyl-beta-cyclodextrin and method of using same” (priority 1988, dated 1989)

System: rats [Crl:CD(SD) BR strain]
Assay: 14-day intravenous toxicity study in rats
Type: in vivo, rat
Conditions: for Number of deaths: 200 mg/kg i.v. every second day
Procedure: As part of the toxicological evaluation of HPBCD, control groups of animals were dosed with HPBCD alone.
Two groups (5/sex/group) of rats [Crl:CD(SD) BR strain] were used for this study. Control rats were given 200 mg of salt per kilogram of body weight intravenously administered in a saline control solution comprising 20% salt by weight in water. The saline control was administered every second day for 14 days (i.e. seven injections). The treated rats were given 200 mg of HPBCD per kilogram of body weight intravenously administered (200 mg/kg i.v. HPBCD) via a HPBCD solution containing 20% HPBCD by weight in water on the same injection schedule. […] At the end of the study the animals were necropsied, gross pathology was observed, histopathological samples were prepared and blood was drawn for clinical laboratory measurements.

[1] = female rats, 200 mg/kg i.v., 14 days
[2] = male rats, 200 mg/kg i.v., 14 days

## hydroxypropyl-beta-cyclodextrin [HPBCD]
[1]
  Albumin/Globulin (Ratio): 0.9 ± 0.06
  Triglycerides: 35.0 ± 12.00 mg/dL
  White blood cells: 7.4 ± 2.56 × 10^3 /mm^3
female, 200 mg/kg i.v.
  Number of observations (antemortem): 0/5
female, 14 days
  Number of deaths: 0/5
female, week 1, 200 mg/kg i.v.
  Body weight gain: 16.0 ± 5.00 Grams
  Food intake: 107.9 ± 10.59 Grams
female, week 2, 200 mg/kg i.v.
  Body weight gain: 18.0 ± 4.21 Grams
  Food intake: 112.1 ± 12.47 Grams
females
  Adrenals weight to total body weight ratio: 0.0328 Weight Percent of Total Body W
  Kidney weight to total body weight ratio: 0.9937 Weight Percent of Total Body W
In words
  Body weight gains vs saline control: No difference
  Food intake vs saline control: No difference
  Gross pathology: No changes in gross pathology attributable to HPBCD treatment were observed
[2]
  Abumin/Globulin (Ratio): 0.9 ± 0.08
  Alanine amino transferase: 24.0 ± 6.70 IU/L
  Albumin: 3.0 ± 0.08 G/dL
  Alkaline phosphatase: 137.0 ± 26.20 IU/L
  Aspartate amino transferase: 124.0 ± 37.36 IU/L
  Basophils: 0.00 ± 0.00 × 10^3 /mm^3
  Blood urea nitrogen: 11.2 ± 0.87 mg/dL
  Calcium: 9.8 ± 0.31 mg/dL
  Chlorine: 106.0 ± 1.80 mmol/L
  Cholesterol: 33.0 ± 7.10 mg/dL
  Creatinine: 0.8 ± 0.04 mg/dL
  Eosinophils: 0.07 ± 0.05 × 10^3 /mm^3
  Globulin: 3.3 ± 0.20 G/dL
  Glucose (blood): 94.1 ± 7.43 mg/dL
  Hematocrit: 48.6 ± 1.74%
  Hemoglobin: 14.6 ± 0.51 G/DL
  Ionic phosphate: 9.7 ± 0.34 mg/dL
  Lymphocytes: 7.13 ± 1.08 × 10^3 /mm^3
  Mean corpuscle: 64.0 ± 2.20 fL
  Mean corpuscle hemoglobin: 19.3 ± 0.60 pg
  Mean corpuscle hemoglobin concentrative: 30.0 ± 0.35%
  Monocytes: 0.08 ± 0.01 × 10^3 /mm^3
  Normal blood cells: 0 ± 0.0 /100 white blood cells
  Platelet count: 1020.0 ± 79.5 × 10^3 /mm^3
  Potassium: 4.7 ± 0.15 mmol/L
  Red blood cell: 7.55 ± 0.17 × 10^6 /mm^3
  Segmented neutrophils: 0.61 ± 0.44 × 10^3 /mm^3
  Sodium: 142 ± 1.5 mM
  Total bilirubin: 0.2 ± 0.04 mg/dL
  Total proteins: 6.3 ± 0.18 G/dL
  Triglycerides: 57.0 ± 17.10 mg/dL
  White blood cells: 7.9 ± 1.18 × 10^3 /mm^3
male, 14 days
  Number of deaths: 0/5
males
  Kidney weight to total body weight ratio: 0.9022 Weight Percent of Total Body W
rat, in vivo
  Adrenals weight to total body weight ratio: 0.0212 Weight Percent of Total Body W
  Clinical laboratory values vs controls: no observed clinically significant differences
  Epididymes weight to total body weight ratio: 0.2635 Weight Percent of Total Body W
  Organ to body ratios between groups: not different between the groups
  Ovaries weight to total body weight ratio: 0.0574 Weight Percent of Total Body W
  Prostate weight to total body weight ratio: 0.2091 Weight Percent of Total Body W
  Testes weight to total body weight ratio: 1.0209 Weight Percent of Total Body W
  Uterus weight to total body weight ratio: 0.3278 Weight Percent of Total Body W
rat, in vivo, iv, 200 mg/kg
  Alanine amino transferase: 21.0 ± 2.30 IU/L
  Albumin: 3.1 ± 0.08 G/dL
  Alkaline phosphatase: 109.0 ± 16.20 IU/L
  Aspartate amino transferase: 102.0 ± 162.00 IU/L
  Basophils: 0.00 ± 0.00 × 10^3 /mm^3
  Blood urea nitrogen: 13.2 ± 2.52 mg/dL
  Calcium: 10.1 ± 0.82 mg/dL
  Chlorine: 107.0 ± 2.60
  Cholesterol: 52.0 ± 18.60 mg/dL
  Creatinine: 0.8 ± 0.11 mg/dL
  Eosinophils: 0.06 ± 0.04 × 10^3 /mm^3
  Globulin: 3.4 ± 0.26 G/dL
  Glucose (blood): 100.0 ± 14.07 mg/dL
  Hematocrit: 47.2 ± 5.59%
